From BindingDB's records for doi:10.7270/Q2M32T6M (Vanderbilt Screening Center for GPCRs, Ion Channels and …, 2009)

molecular target: T1, Solute carrier family 12 member 5 (Homo sapiens, UniProt Q9H2X9); test: KCC2 modulator potency by thallium flux, dose response, cell-based, HEK293 KCC2, FluoZin-2 fluorescence (AID 1736); conditions: not given
T1 sequence (Q9H2X9 whole entry): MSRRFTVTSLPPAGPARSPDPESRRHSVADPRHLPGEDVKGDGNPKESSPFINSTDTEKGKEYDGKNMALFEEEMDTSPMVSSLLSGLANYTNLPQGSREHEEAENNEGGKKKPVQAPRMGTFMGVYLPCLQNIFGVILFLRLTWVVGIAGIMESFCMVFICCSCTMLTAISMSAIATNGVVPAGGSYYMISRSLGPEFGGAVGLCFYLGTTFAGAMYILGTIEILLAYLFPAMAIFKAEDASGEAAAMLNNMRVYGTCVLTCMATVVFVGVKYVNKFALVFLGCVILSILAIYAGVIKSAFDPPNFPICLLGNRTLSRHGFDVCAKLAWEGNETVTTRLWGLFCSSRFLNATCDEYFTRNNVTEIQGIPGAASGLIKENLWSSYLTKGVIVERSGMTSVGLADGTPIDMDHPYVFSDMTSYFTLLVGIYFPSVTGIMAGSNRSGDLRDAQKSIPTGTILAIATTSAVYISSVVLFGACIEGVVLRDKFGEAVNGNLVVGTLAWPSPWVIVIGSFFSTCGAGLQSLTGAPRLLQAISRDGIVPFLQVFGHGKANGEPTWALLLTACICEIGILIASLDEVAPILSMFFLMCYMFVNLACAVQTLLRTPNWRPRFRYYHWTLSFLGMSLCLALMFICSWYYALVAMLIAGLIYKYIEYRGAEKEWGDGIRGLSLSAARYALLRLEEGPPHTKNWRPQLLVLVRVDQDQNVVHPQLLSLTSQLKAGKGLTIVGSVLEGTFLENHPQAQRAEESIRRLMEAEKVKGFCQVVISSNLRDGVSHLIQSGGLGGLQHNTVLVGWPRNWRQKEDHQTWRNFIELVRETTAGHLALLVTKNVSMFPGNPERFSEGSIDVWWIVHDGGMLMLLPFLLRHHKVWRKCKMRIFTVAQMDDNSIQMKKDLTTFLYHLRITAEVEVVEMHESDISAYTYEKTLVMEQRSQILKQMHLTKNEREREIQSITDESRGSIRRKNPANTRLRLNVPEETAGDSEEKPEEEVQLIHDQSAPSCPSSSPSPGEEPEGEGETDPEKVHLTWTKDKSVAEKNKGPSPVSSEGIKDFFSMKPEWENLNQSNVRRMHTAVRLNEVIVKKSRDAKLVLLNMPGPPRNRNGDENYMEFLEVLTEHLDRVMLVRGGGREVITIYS

| Compound | EC50 |
| --- | --- |
| O=[N+]([O-])c1ccccc1C=C[CH+][N-]n1c(-c2ccc(Cl)cc2)n[nH]c1=S [MLS000555506] | 15.5 µM |
| CS(=O)(=O)N(CC(=O)N1CCN(c2ccc(F)cc2)CC1)c1ccc(F)c(Cl)c1 [MLS000531433] | 20.6 µM |
| NC(=S)NN=C1C(=O)N(Cc2ccc(F)cc2)c2ccccc21 [1-[(Z)-[1-[(4-fluorophenyl)methyl]-2-oxidanylidene-indol-3-ylidene]amino]thiourea] | 7.98 µM |
| O=S(=O)(NC1CCCC1)c1cccc(S(=O)(=O)N2CCC(n3nnc4ccccc43)CC2)c1 [3-(4-Benzotriazol-1-yl-piperidine-1-sulfonyl)-N-cyclopentyl-benzenesulfonamide] | 4.05 µM |
| Cc1c(N=C2Nc3cccc4cccc2c34)c(=O)n(-c2ccccc2)n1C [4-(2-benzo[cd]indolylamino)-1,5-dimethyl-2-phenyl-3-pyrazolone] | 0.733 µM |
| O=C(C1CCN(c2nc3ccc(Br)cc3s2)CC1)N1CCC2(CC1)OCCO2 [8-{[1-(6-bromo-1,3-benzothiazol-2-yl)piperidin-4-yl]carbonyl}-1,4-dioxa-8-azaspiro[4.5]decane] | 5.25 µM |
| CC1CCCCN1C(=O)CSc1ccc(-c2ccc(F)cc2)nn1 (stereo not given) [2-[6-(4-Fluoro-phenyl)-pyridazin-3-ylsulfanyl]-1-(2-methyl-piperidin-1-yl)-ethanone] | 3.78 µM |
| O=C(O)CCn1c(SCc2cccc3ccccc23)nc2ccccc21 [3-[2-(1-naphthalenylmethylthio)-1-benzimidazolyl]propanoic acid] | 0.677 µM |
| O=C(O)c1cc([N+](=O)[O-])ccc1NCc1ccccc1 [2-(benzylamino)-5-nitro-benzoic acid] | 1490 µM |
| O=C(NC(=S)NNC(=O)c1cnccn1)c1ccc(Cl)cc1 [4-Chloro-N-[N'-(pyrazine-2-carbonyl)-hydrazinocarbothioyl]-benzamide] | 9.74 µM |
| CCn1nnnc1SCC(=O)Nc1nc(-c2cccs2)cs1 [2-(1-Ethyl-1H-tetrazol-5-ylsulfanyl)-N-(4-thiophen-2-yl-thiazol-2-yl)-acetamide] | 3.74 µM |
| S=C(NCc1cccnc1)Nc1ccc(Oc2ccccc2)cc1 [1-(4-phenoxyphenyl)-3-(3-pyridinylmethyl)thiourea] | 1.19 µM |
| Cc1cc(C(=O)COC(=O)CCc2nc3ccccc3s2)c(C)n1C [3-(1,3-benzothiazol-2-yl)propanoic acid [2-oxo-2-(1,2,5-trimethyl-3-pyrrolyl)ethyl] ester] | 1.94 µM |
| O=C(C1CCCN(S(=O)(=O)c2cccc3nonc23)C1)N1CCC(Cc2ccccc2)CC1 (stereo not given) [(1-benzofurazan-4-ylsulfonyl-3-piperidyl)-(4-benzylpiperidino)methanone] | 1460 µM |
| N#Cc1c(NC(=O)CSc2nc(N)cc(=O)[nH]2)sc2c1CCCCCC2 [2-[(6-amino-4-oxo-1H-pyrimidin-2-yl)sulfanyl]-N-(3-cyano-4,5,6,7,8,9-hexahydrocycloocta[b]thiophen-2-yl)acetamide] | 233 µM |
| O=C(CSc1nccc(=O)[nH]1)N1CCc2ccccc2C1 [SMR000124078] | 17.1 µM |
| CCn1c(=O)n(CC)c2cc(S(=O)(=O)N3CCC(c4ccccc4)CC3)ccc21 [1,3-diethyl-5-(4-phenylpiperidin-1-yl)sulfonyl-benzimidazol-2-one] | 13.2 µM |
| C=C(C)Cn1c(N2CCC(Cc3ccccc3)CC2)nc2c1c(=O)[nH]c(=O)n2C [3-methyl-7-(2-methylprop-2-enyl)-8-[4-(phenylmethyl)-1-piperidinyl]purine-2,6-dione] | 15.8 µM |
| CCN(CC)c1ccc2c(C)c(-c3ccc(N)cc3)c(=O)oc2c1 [3-(4-aminophenyl)-7-(diethylamino)-4-methyl-1-benzopyran-2-one] | 1.15 µM |

| Compound | EC50 |
| --- | --- |
| O=C(NCCOc1ccccc1F)c1ccccc1SCc1ccc(F)cc1 [2-[(4-fluorobenzyl)thio]-N-[2-(2-fluorophenoxy)ethyl]benzamide] | 0.717 µM |
| Cc1ccc(C)c(C(=O)NC(C)CCc2ccccc2)c1 (stereo not given) [2,5-dimethyl-N-(1-methyl-3-phenyl-propyl)benzamide] | 7.74 µM |
| COc1ccc(NC(=S)NC(N)=Nc2nc(C)c3ccccc3n2)cc1 [(1E)-1-[amino-[(4-methyl-2-quinazolinyl)amino]methylidene]-3-(4-methoxyphenyl)thiourea] | 2.8 µM |
| Cc1[nH]c2ccccc2c1Cc1n[nH]c(=S)n1C | 31.5 µM |
| CC1Cc2ccccc2N1C(=O)c1ccc(N2CCCC2)c([N+](=O)[O-])c1 (stereo not given) [(2-methyl-2,3-dihydroindol-1-yl)-(3-nitro-4-pyrrolidin-1-yl-phenyl)methanone] | 0.651 µM |
| O=[N+]([O-])c1cc(-n2c(O)c3c(c2O)CCCC3)ccc1NC1CCN(Cc2ccccc2)CC1 [2-[3-nitro-4-[[1-(phenylmethyl)-4-piperidinyl]amino]phenyl]-3a,4,5,6,7,7a-hexahydroisoindole-1,3-dione] | 28.1 µM |
| O=C(NCC1CCCO1)C(c1cccs1)N(C(=O)c1ccc(-c2ccccc2)[nH]1)C1CCCC1 (stereo not given) [5-Phenyl-1H-pyrrole-2-carboxylic acid cyclopentyl-{[(tetrahydro-furan-2-ylmethyl)-carbamoyl]-thiophen-2-yl-methyl}-amide] | 7.73 µM |
| Cc1ccc(NC(=O)c2ccccc2NS(=O)(=O)c2ccc(Cl)s2)cc1 [2-[(5-chloranylthiophen-2-yl)sulfonylamino]-N-(4-methylphenyl)benzamide] | 1.07 µM |
| CNc1ccc2oc(C[C@H]3O[C@@]4(CC[C@H]3C)O[C@H]([C@H](C)C(=O)c3ccc[nH]3)[C@H](C)C[C@H]4C)nc2c1C(=O)O [MLS001056783] | 9.96 µM |
| Cc1nn(-c2ccc(F)cc2)c(C)c1NS(=O)(=O)c1ccc2ccccc2c1 [MLS000565745] | 2.64 µM |
| N#Cc1nc(-c2cccs2)oc1N1CCN(Cc2ccccc2)CC1 [5-(4-benzyl-1-piperazinyl)-2-(2-thienyl)-1,3-oxazole-4-carbonitrile] | 4.16 µM |
| Cc1ccccc1-c1nc(C[S+]([O-])CC(=O)NCc2ccccc2)c(C)o1 (stereo not given) [2-[[5-methyl-2-(2-methylphenyl)-1,3-oxazol-4-yl]methylsulfinyl]-N-(phenylmethyl)ethanamide] | 8.09 µM |
| C=CCNc1oc(Cc2cccc3ccccc23)nc1C#N [2-(1-naphthalenylmethyl)-5-(prop-2-enylamino)-4-oxazolecarbonitrile] | 4.49 µM |
| Cc1ccc(S(=O)(=O)N2CCC(=O)N(C(COCc3ccccc3)Cc3ccccc3)CC2)cc1 (stereo not given) [1-(4-methylphenyl)sulfonyl-4-(1-phenyl-3-phenylmethoxy-propan-2-yl)-1,4-diazepan-5-one] | 1.24 µM |
| COC(=O)c1sccc1NC(=S)OC [3-(methoxycarbothioylamino)thiophene-2-carboxylic acid methyl ester] | 1.48 µM |
| O=C(NC(=S)Nc1nc(-c2cccc([N+](=O)[O-])c2)cs1)c1cc(Cl)ccc1Cl [2,5-bis(chloranyl)-N-[[4-(3-nitrophenyl)-1,3-thiazol-2-yl]carbamothioyl]benzamide] | 10.8 µM |
| O=C(NC(=S)Nc1cccc2cccnc12)c1cccs1 [MLS000688132] | 0.156 µM |
| Cc1cccc(NC(=S)NN=C2C(=O)N(CN3CCOCC3)c3ccccc32)c1C [(3Z)-1-(morpholin-4-ylmethyl)-1H-indole-2,3-dione 3-[N-(2,3-dimethylphenyl)thiosemicarbazone]] | 6.09 µM |
| O=C(NCc1cccnc1)c1ccc(COc2ccccc2Br)o1 [5-[(2-bromanylphenoxy)methyl]-N-(pyridin-3-ylmethyl)furan-2-carboxamide] | 13.8 µM |

same assay, conditions: inactive by the depositor's call

| Compound | EC50 |
| --- | --- |
| O=C(CCc1ccccc1)NC(=S)Nc1cccc(Br)c1 [MLS000583293] | 296 µM |
| c1coc(CNc2nc3nonc3nc2NCc2ccco2)c1 [2-furfuryl-[5-(2-furfurylamino)furazano[3,4-b]pyrazin-6-yl]amine] | 43.7 µM |
| O=C(Nc1cc(S(=O)(=O)N2CCCCC2)ccc1Cl)c1ccccc1NS(=O)(=O)c1ccc(F)cc1 [MLS000707627] | 101 µM |
| CC1=C(C(=O)OCCOc2ccccc2)C(c2ccsc2)NC(=O)N1C (stereo not given) [2-phenoxyethyl 3,4-dimethyl-2-oxo-6-thiophen-3-yl-1,6-dihydropyrimidine-5-carboxylate] | 61.2 µM |
| Cc1[nH][nH]c(=O)c1C(c1ccc(-c2ccc(Cl)c(Cl)c2)o1)c1c(C)[nH][nH]c1=O | 130 µM |
| O=C(/C=C/c1cccs1)Nc1scc(-c2ccccc2)c1C(=O)O [SMR000364116] | 29 µM |
| CC(C)CC(c1nnnn1Cc1cccs1)N1CCN(c2nc3ccccc3s2)CC1 (stereo not given) [2-[4-[3-methyl-1-[1-(2-thenyl)tetrazol-5-yl]butyl]piperazino]-1,3-benzothiazole] | 46.4 µM |
